{
  "source": "patent US20110052684A1",
  "about": "“PHARMACEUTICAL COMPOSITION” (priority 2008, published 2011)",
  "format_in_all_cases": "physicochemical",
  "key": {"[1]": {"assay": "pKa (physicochemistry of the actives)", "from_the_text": "The synchronous release of the combination of actives comprising the once-daily pharmaceutical compositions of the present invention is particularly surprising when one considers that the differing physicochemical characteristics of the active ingredients and the likely differences in the permeability coefficients for the combination of active drugs would result in a differing rate and extent of drug release for each of the drugs chosen to be part of the combination. Accordingly, it was expected that it would be difficult to optimize the release kinetics of the combination of drugs contemplated without one drug potentially negatively influencing the release kinetics of the other drug of the combination."}, "[2]": {"assay": "Dissolution, 900 ml pH 6.8 phosphate buffer, USP Apparatus 1, 75 rpm, 37° C.", "settings": "Example 29 homogenous CR tablet (batch no. 08070T)", "description": "(§1) The dissolution profile of the above pharmaceutical composition was determined under the dissolution conditions described below in Tables 1A, 1B, and 1C."}, "[3]": {"assay": "Dissolution, 900 ml pH 7.5 phosphate buffer, Apparatus 1, 75 rpm, 37 C.", "description": "FIG. 27 is a graph depicting the dissolution profile in 900 ml of pH 7.5 phosphate buffer using USP Apparatus 1 at 75 rpm at 37° C. of the composition described in Example 27.\nFIG. 28 is a graph depicting the dissolution profile in 900 ml of pH 7.5 phosphate buffer using USP Apparatus 1 at 75 rpm at 37° C. of the composition described in Example 28.\nThe dissolution profile of the above pharmaceutical composition was determined under the dissolution conditions described below in Table 27.\nThe dissolution profile of the above pharmaceutical composition was determined under the dissolution conditions described below in Table 28. The result of the dissolution testing is presented as a % of the total tramadol HCl and meloxicam in the controlled release tablet (batch 1258-175) and also depicted in FIG. 28."}, "[4]": {"assay": "Dissolution, 900 ml 0.1N HCl, USP Apparatus 1, 75 rpm, 37° C.", "settings": "Example 29 homogenous CR tablet (batch no. 08070T)", "description": "as §1"}},
  "note": "Structures can show the parent of a compound that is named as a salt.",
  "data": [
    {"molecule": "CC(NC(C)(C)C)C(=O)c1cccc(Cl)c1", "note": "(stereo not shown) [Bupropion HBr, bupropion hydrobromide]", "values": [
      {"measurement": "pKa", "setting": "[1]", "result": 7.8}
    ]},
    {"molecule": "OCCOCCN1CCN(C2=Nc3ccccc3Sc3ccccc32)CC1", "note": "[Quetiapine Fumarate, quetiapine fumarate]", "values": [
      {"measurement": "pKa", "setting": "[1]", "result": 3.3}
    ]},
    {"molecule": "COc1cccc(C2(O)CCCCC2CN(C)C)c1", "note": "(stereo not shown) [Tramadol HCl]", "values": [
      {"measurement": "% Released", "setting": "[2]; 0.5 hr", "result": 19, "unit": "%"},
      {"measurement": "% Released", "setting": "[2]; 1 hr", "result": 29, "unit": "%"},
      {"measurement": "% Released", "setting": "[2]; 2 hr", "result": 44, "unit": "%"},
      {"measurement": "% Released", "setting": "[2]; 3 hr", "result": 55, "unit": "%"},
      {"measurement": "% Released", "setting": "[2]; 4 hr", "result": 65, "unit": "%"},
      {"measurement": "% Released", "setting": "[2]; 5 hr", "result": 72, "unit": "%"},
      {"measurement": "% Released", "setting": "[2]; 6 hr", "result": 79, "unit": "%"},
      {"measurement": "% Released", "setting": "[2]; 8 hr", "result": 90, "unit": "%"},
      {"measurement": "% Released", "setting": "[2]; 10 hr", "result": 98, "unit": "%"},
      {"measurement": "% Release", "setting": "[3]; 2 hrs, Example 27 controlled release tablet (batch 1258-171), ethylcellulose coating", "result": 51, "unit": "%"},
      {"measurement": "% Release", "setting": "[3]; 2 hrs, Example 28 controlled release tablet (batch 1258-175), Kollicoat SR 30D coating", "result": 0, "unit": "%"},
      {"measurement": "% Release", "setting": "[3]; 4 hrs, Example 27 controlled release tablet (batch 1258-171), ethylcellulose coating", "result": 70, "unit": "%"},
      {"measurement": "% Release", "setting": "[3]; 4 hrs, Example 28 controlled release tablet (batch 1258-175), Kollicoat SR 30D coating", "result": 7, "unit": "%"},
      {"measurement": "% Release", "setting": "[3]; 8 hrs, Example 27 controlled release tablet (batch 1258-171), ethylcellulose coating", "result": 96, "unit": "%"},
      {"measurement": "% Release", "setting": "[3]; 8 hrs, Example 28 controlled release tablet (batch 1258-175), Kollicoat SR 30D coating", "result": 61, "unit": "%"},
      {"measurement": "% Release", "setting": "[3]; 10 hrs, Example 27 controlled release tablet (batch 1258-171), ethylcellulose coating", "result": 100, "unit": "%"},
      {"measurement": "% Release", "setting": "[3]; 10 hrs, Example 28 controlled release tablet (batch 1258-175), Kollicoat SR 30D coating", "result": 74, "unit": "%"},
      {"measurement": "% Release", "setting": "[3]; 16 hrs, Example 27 controlled release tablet (batch 1258-171), ethylcellulose coating", "result": 100, "unit": "%"},
      {"measurement": "% Release", "setting": "[3]; 16 hrs, Example 28 controlled release tablet (batch 1258-175), Kollicoat SR 30D coating", "result": 84, "unit": "%"},
      {"measurement": "% Released", "setting": "[4]; 0.5 hr", "result": 18, "unit": "%"},
      {"measurement": "% Released", "setting": "[4]; 1 hr", "result": 28, "unit": "%"},
      {"measurement": "% Released", "setting": "[4]; 2 hr", "result": 42, "unit": "%"},
      {"measurement": "% Released", "setting": "[4]; 3 hr", "result": 53, "unit": "%"},
      {"measurement": "% Released", "setting": "[4]; 4 hr", "result": 62, "unit": "%"},
      {"measurement": "% Released", "setting": "[4]; 5 hr", "result": 70, "unit": "%"},
      {"measurement": "% Released", "setting": "[4]; 6 hr", "result": 76, "unit": "%"},
      {"measurement": "% Released", "setting": "[4]; 8 hr", "result": 86, "unit": "%"},
      {"measurement": "% Released", "setting": "[4]; 10 hr", "result": 93, "unit": "%"},
      {"measurement": "% Released", "setting": "[4]; 12 hr", "result": 97, "unit": "%"}
    ]}
  ]
}
